Measured values published in BindingDB's records for doi:10.1021/jm960441m (Upjohn, 1997).

These compounds were tested against T1, Dimer of Gag-Pol polyprotein [489-587] (Human immunodeficiency virus 1, UniProt P12497) (assay: Protease Inhibition Assay). Settings: not given.
T1 construct: 489-587
Text: HIV-1 protease was purified and refolded from E. coli inclusion bodies. […] In the presence of HIV-l protease, the substrate is rapidly cleaved into two parts. The biotinylated amino terminal fragment binds to the avidin beads while the FITC-containing carboxy1 terminal fragment is removed through the membrane. […] The bound fluorescence is obtained by processing on an IDEXX Screen Machine. Determination of Ki values with this assay requires analysis under conditions in which substrate concentration resides substantially below Km and the inhibitor concentrations greatly exceeds the Ki value and the enzyme concentration.

| Compound | Ki [nM] |
| --- | --- |
| O=c1oc2c(c(O)c1C(c1cccc(NS(=O)(=O)c3cscn3)c1)C1CC1)CCCCCC2 (centres undefined) [N-{3-[cyclopropyl({4-hydroxy-2-oxo-2H,5H,6H,7H,8H,9H,10H-cycloocta[b]pyran-3-yl})methyl]phenyl}-1,3-thiazole-4-sulfonamide] | 1.6 |
| O=c1oc2c(c(O)c1C(c1cccc(NS(=O)(=O)c3ccc(F)cc3)c1)C1CC1)CCCCCC2 (centres undefined) | 3.1 |
| O=c1oc2c(c(O)c1C(c1cccc(NS(=O)(=O)c3ccc(OC(F)(F)F)cc3)c1)C1CC1)CCCCCC2 (centres undefined) [N-{3-[cyclopropyl({4-hydroxy-2-oxo-2H,5H,6H,7H,8H,9H,10H-cycloocta[b]pyran-3-yl})methyl]phenyl}-4-(trifluoromethoxy)benzene-1-sulfonamide] | 4 |
| O=c1oc2c(c(O)c1C(c1cccc(NS(=O)(=O)c3cc(Cl)ccc3Cl)c1)C1CC1)CCCCCC2 (centres undefined) [2,5-dichloro-N-{3-[cyclopropyl({4-hydroxy-2-oxo-2H,5H,6H,7H,8H,9H,10H-cycloocta[b]pyran-3-yl})methyl]phenyl}benzene-1-sulfonamide] | 74 |
| O=c1oc2c(c(O)c1C(c1cccc(NS(=O)(=O)c3cnccn3)c1)C1CC1)CCCCCC2 (centres undefined) [N-{3-[cyclopropyl({4-hydroxy-2-oxo-2H,5H,6H,7H,8H,9H,10H-cycloocta[b]pyran-3-yl})methyl]phenyl}pyrazine-2-sulfonamide] | 0.2 |
| O=c1oc2c(c(O)c1C(c1cccc(NS(=O)(=O)c3ncccn3)c1)C1CC1)CCCCCC2 (centres undefined) [N-{3-[cyclopropyl({4-hydroxy-2-oxo-2H,5H,6H,7H,8H,9H,10H-cycloocta[b]pyran-3-yl})methyl]phenyl}pyrimidine-2-sulfonamide] | 0.8 |
| O=c1oc2c(c(O)c1C(c1cccc(NS(=O)(=O)c3ccc(C(F)(F)F)c(C(F)(F)F)c3)c1)C1CC1)CCCCCC2 (centres undefined) [N-{3-[cyclopropyl({4-hydroxy-2-oxo-2H,5H,6H,7H,8H,9H,10H-cycloocta[b]pyran-3-yl})methyl]phenyl}-3,4-bis(trifluoromethyl)benzene-1-sulfonamide] | 47 |
| O=c1oc2c(c(O)c1C(c1cccc(NS(=O)(=O)c3ccc4ccccc4n3)c1)C1CC1)CCCCCC2 (centres undefined) [N-{3-[cyclopropyl({4-hydroxy-2-oxo-2H,5H,6H,7H,8H,9H,10H-cycloocta[b]pyran-3-yl})methyl]phenyl}quinoline-2-sulfonamide] | 0.4 |
| O=c1oc2c(c(O)c1C(c1cccc(NS(=O)(=O)c3ccc(F)cc3F)c1)C1CC1)CCCCCC2 (centres undefined) [N-{3-[cyclopropyl({4-hydroxy-2-oxo-2H,5H,6H,7H,8H,9H,10H-cycloocta[b]pyran-3-yl})methyl]phenyl}-2,4-difluorobenzene-1-sulfonamide] | 4.1 |
| O=c1oc2c(c(O)c1C(c1cccc(NS(=O)(=O)c3cccc(Cl)c3Cl)c1)C1CC1)CCCCCC2 (centres undefined) [2,3-dichloro-N-{3-[cyclopropyl({4-hydroxy-2-oxo-2H,5H,6H,7H,8H,9H,10H-cycloocta[b]pyran-3-yl})methyl]phenyl}benzene-1-sulfonamide] | 7.6 |
| O=c1oc2c(c(O)c1C(c1cccc(NS(=O)(=O)c3ccc(Cl)c(Cl)c3Cl)c1)C1CC1)CCCCCC2 (centres undefined) [2,3,4-trichloro-N-{3-[cyclopropyl({4-hydroxy-2-oxo-2H,5H,6H,7H,8H,9H,10H-cycloocta[b]pyran-3-yl})methyl]phenyl}benzene-1-sulfonamide] | 8.8 |
| O=c1oc2c(c(O)c1C(c1cccc(NS(=O)(=O)c3ccc(Cl)c(Cl)c3)c1)C1CC1)CCCCCC2 (centres undefined) [3,4-dichloro-N-{3-[cyclopropyl({4-hydroxy-2-oxo-2H,5H,6H,7H,8H,9H,10H-cycloocta[b]pyran-3-yl})methyl]phenyl}benzene-1-sulfonamide] | 4.1 |
| O=c1oc2c(c(O)c1C(c1cccc(NS(=O)(=O)c3ccc4ccccc4c3)c1)C1CC1)CCCCCC2 (centres undefined) [N-{3-[cyclopropyl({4-hydroxy-2-oxo-2H,5H,6H,7H,8H,9H,10H-cycloocta[b]pyran-3-yl})methyl]phenyl}naphthalene-2-sulfonamide] | 4.1 |
| O=c1oc2c(c(O)c1C(c1cccc(NS(=O)(=O)c3cccs3)c1)C1CC1)CCCCCC2 (centres undefined) [N-{3-[cyclopropyl({4-hydroxy-2-oxo-2H,5H,6H,7H,8H,9H,10H-cycloocta[b]pyran-3-yl})methyl]phenyl}thiophene-2-sulfonamide] | 6.3 |
| O=c1oc2c(c(O)c1C(c1cccc(NS(=O)(=O)c3ccc(Cl)cc3)c1)C1CC1)CCCCCC2 (centres undefined) [4-chloro-N-{3-[cyclopropyl({4-hydroxy-2-oxo-2H,5H,6H,7H,8H,9H,10H-cycloocta[b]pyran-3-yl})methyl]phenyl}benzene-1-sulfonamide] | 2.5 |
| O=c1oc2c(c(O)c1C(c1cccc(NS(=O)(=O)c3cc(Cl)cc(Cl)c3)c1)C1CC1)CCCCCC2 (centres undefined) [3,5-dichloro-N-{3-[cyclopropyl({4-hydroxy-2-oxo-2H,5H,6H,7H,8H,9H,10H-cycloocta[b]pyran-3-yl})methyl]phenyl}benzene-1-sulfonamide] | 6.9 |
| O=c1oc2c(c(O)c1C(c1cccc(NS(=O)(=O)c3ccc(C(F)(F)F)cc3)c1)C1CC1)CCCCCC2 (centres undefined) [N-{3-[cyclopropyl({4-hydroxy-2-oxo-2H,5H,6H,7H,8H,9H,10H-cycloocta[b]pyran-3-yl})methyl]phenyl}-4-(trifluoromethyl)benzene-1-sulfonamide] | 6.2 |
| O=c1oc2c(c(O)c1C(c1cccc(NS(=O)(=O)c3cccc4cccnc34)c1)C1CC1)CCCCCC2 (centres undefined) [N-[3-[Cyclopropyl(5,6,7,8,9,10-hexahydro-4-hydroxy-2-oxo-2H-cycloocta[b]pyran-3-yl)methyl]phenyl]-8-quinolinesulfonamide] | 1.9 |

Same assay, conditions: pH 5; 22 °C

| Compound | Ki [nM] |
| --- | --- |
| O=c1oc2c(c(O)c1C(c1cccc(NS(=O)(=O)c3ccccc3F)c1)C1CC1)CCCCCC2 (centres undefined) [N-{3-[cyclopropyl({4-hydroxy-2-oxo-2H,5H,6H,7H,8H,9H,10H-cycloocta[b]pyran-3-yl})methyl]phenyl}-2-fluorobenzene-1-sulfonamide] | 11 |
| O=c1oc2c(c(O)c1C(c1cccc(NS(=O)(=O)Cc3ccccc3)c1)C1CC1)CCCCCC2 (centres undefined) [N-[3-[Cyclopropyl(5,6,7,8,9,10-hexahydro-4-hydroxy-2-oxo-2H-cycloocta[b]pyran-3-yl)methyl]phenyl]benzenemethanesulfonamide] | 13 |
| O=c1oc2c(c(O)c1C(c1cccc(NS(=O)(=O)c3cccc(C(F)(F)F)c3)c1)C1CC1)CCCCCC2 (centres undefined) [N-{3-[cyclopropyl({4-hydroxy-2-oxo-2H,5H,6H,7H,8H,9H,10H-cycloocta[b]pyran-3-yl})methyl]phenyl}-3-(trifluoromethyl)benzene-1-sulfonamide] | 3 |
| O=c1oc2c(c(O)c1C(c1cccc(NS(=O)(=O)/C=C/c3ccccc3)c1)C1CC1)CCCCCC2 (centres undefined) [(E)-N-{3-[cyclopropyl({4-hydroxy-2-oxo-2H,5H,6H,7H,8H,9H,10H-cycloocta[b]pyran-3-yl})methyl]phenyl}-2-phenylethene-1-sulfonamide] | 3 |
| O=c1oc2c(c(O)c1C(c1cccc(NS(=O)(=O)c3cccc(Cl)c3)c1)C1CC1)CCCCCC2 (centres undefined) [3-chloro-N-{3-[cyclopropyl({4-hydroxy-2-oxo-2H,5H,6H,7H,8H,9H,10H-cycloocta[b]pyran-3-yl})methyl]phenyl}benzene-1-sulfonamide] | 2.7 |
| O=c1oc2c(c(O)c1C(c1cccc(NS(=O)(=O)c3ccccc3C(F)(F)F)c1)C1CC1)CCCCCC2 (centres undefined) [N-{3-[cyclopropyl({4-hydroxy-2-oxo-2H,5H,6H,7H,8H,9H,10H-cycloocta[b]pyran-3-yl})methyl]phenyl}-2-(trifluoromethyl)benzene-1-sulfonamide] | 21 |
